This note sets out measurements from patent US5196418A, “Hemicholinium lipids and use thereof” (Board of Supervisors, Louisiana State University …, priority 1992, dated 1993).

As a reminder, the Ki is a dissociation constant, usually derived from enzyme kinetics or from competition with a known ligand. Higher therefore signals a looser hold on the target.

Each structure is given as a SMILES string.

Assay [1] has as its system cell-cell aggregation. Briefly: Inhibition of cell-cell aggregation (method of Fritz et al.). The assay is classed as cell-based. From the text: Cell-cell aggregation studies by the method of Fritz et al., J. CeII.
Assay [2] deals with CPT-II. The assay can be described thus: CPT inhibition (spectrophotometric assay, CPT-II prepared from beef liver). It counts as biochemical. Conditions: Ki 2 μM versus 10.4 μM. How it is done:
(§1) Preparation: CPT-II was prepared from beef liver using the methods of P. R. H. Clarke and L. L. Bieber (1981) J. Biol. Chem., 256. 9861-9868.
(§2) In final volume of 1 ml, 20 mm KPO4^-, pH 7.4 at 30° C., 125 μM aldrithiol [4,4-dithio(bis)pyridine], 10 μM decanoyl-CoA, 10 μl enzyme (1.25 μg/ml) and inhibitor were preincubated at 30° C. for 1 min. and the reaction was initiated with L-carnitine. The absorbance change at 324 nm, followed in a spectrophotometer, was linear with time. L-carnitine conc. were 1 mM and 5 mM. H15C conc. ranged from 1.25 μM-12.5 μM (6values).

Assay [3] concerns the target T1, CPT-II (Bos taurus, UniProt Q2KJB7).
T1 construct: CPT-II was prepared from beef liver; from tissue; host or cells: beef liver
T1 sequence (Q2KJB7 26-658): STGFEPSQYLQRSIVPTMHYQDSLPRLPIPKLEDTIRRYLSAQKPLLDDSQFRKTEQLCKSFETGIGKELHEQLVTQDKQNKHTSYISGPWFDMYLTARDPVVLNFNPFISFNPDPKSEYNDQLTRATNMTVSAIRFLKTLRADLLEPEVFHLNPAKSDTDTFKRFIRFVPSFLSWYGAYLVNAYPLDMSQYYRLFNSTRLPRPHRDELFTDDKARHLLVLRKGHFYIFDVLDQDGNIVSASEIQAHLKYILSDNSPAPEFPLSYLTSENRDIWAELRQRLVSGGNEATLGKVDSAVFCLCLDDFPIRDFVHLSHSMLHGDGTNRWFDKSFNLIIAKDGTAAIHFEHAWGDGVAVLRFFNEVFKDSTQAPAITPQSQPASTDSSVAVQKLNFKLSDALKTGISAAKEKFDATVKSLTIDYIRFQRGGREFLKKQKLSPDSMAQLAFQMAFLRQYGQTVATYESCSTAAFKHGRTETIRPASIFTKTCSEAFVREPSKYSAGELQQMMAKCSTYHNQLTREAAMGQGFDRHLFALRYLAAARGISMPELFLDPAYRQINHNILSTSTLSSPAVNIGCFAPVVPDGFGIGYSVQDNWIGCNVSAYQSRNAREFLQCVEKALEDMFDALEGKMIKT
The description is as above. It counts as biochemical. Conditions: CPT-II from beef liver, 10 μM decanoyl-CoA, L-carnitine 1 mM and 5 mM, pH 7.4, 30° C. How it is done:
as §1, §2

In turn, `CCCCCCCCCCCCCCCC(=O)C[N+](C)(C)CCCO` [Example 9, N-(3-Hydroxypropyl)-N,N-dimethyl-N-(2-oxoheptadecyl)ammonium Bromide] yielded an inhibition constant (Ki) in assay [1] of 750 nM. Still for that read-out and setting: the same measure for `CCCCCCCCCCCCCCCCC1(O)C[N+](C)(C)CCO1` (racemic) [Example 3, 2-Hexadecyl-2-hydroxy-4,4-dimethylmorpholinium Bromide]: 400 nM. Same read-out and setting: the value for `CCCCCCCCCCCCC1(O)C[N+](C)(C)CCO1` (racemic) [Example 7, 2-Dodecyl-2-hydroxy-4,4-dimethylmorpholinium Bromide] was 12000 nM. The same measure, in the same setting: the same measure for `CCCCCCCCCCCCCCC1(O)C[N+](C)(C)CCO1` (racemic) [Example 5, 2-Hydroxy-4,4-dimethyl-2,-tetradecylmorpholinium Bromide]: 1500 nM. Take `CCCCCCCCCCCCCCCC1(O)C[N+](C)(C)CCO1.[Br-]` (stereo not shown) [Example 4, 2Hydroxy-4,4-dimethyl-2-pentadecylmorpholinium Bromide]: the Ki in assay [1] was found to be 400 nM; in assay [3] it was 2000 nM. Besides, the “binding strength relative to palmitoylcholine (from Ki against CPT)” value in assay [2] is “five-fold stronger binding”.
